Assay results as given in patent publication US20070155827A1, “USE OF BENZO-FUSED HETEROCYCLE SULFAMIDE DERIVATIVES FOR THE TREATMENT OF DEPRESSION” (priority 2005, published 2007).
Read-outs that look alike come from different tables or passages of the source.

Columns and labels:
CH3/HeJ mice = experiment: Mouse Tail Suspension Assay (Acute), TST; type: in vivo; conditions: Mus musculus, po, 7 min, p.o., 7-min session
Method: In the tail suspension test (TST) for evaluating compounds for anti-depressant activity, mice are suspended by their tails to a metal or plastic rod using clip or scotch tape. The test is usually quite short, 5-7 min, and the amount of time the mice spend immobile is recorded either manually or with an automated device. Agents which have antidepressant activity, decrease the duration of immobility of mice in this test.
The basic apparatus for the tail suspension assay consisted of a yellow plastic chamber (91×45×10 cm) divided for four arenas 25, 20, 20 and 25 cm wide separated by yellow plastic walls 0.75 cm thick. Mice were suspended by their tails using a rubber clip (7 cm long) attached to the plastic rod that was placed on the top of a testing chamber half way through its deep dimension. Each experimental session was videotaped and analyzed for four animals in the real time by computer software (“Depression Scan” Clever Sys Inc.). The computer justification of immobility was calibrated with the use of animals dosed with lorazepam while justification of movement was calibrated with the high dose of desipramine treated animals. Control, vehicle treated animals and animals treated with Compound #8 were analyzed under the calibrated settings. The settings were adjusted separately for dark (CH3/HeJ and C57Bl/6J strains) and white mice (Balb/cJ and A/J strains). A yellow background was used for dark mice and a blue background was used to record movements of white mice.
The ability of a test compound to decrease the duration of immobility, or increase mobility was measured using the TST procedure described above. Acute treatment with clinically effective antidepressants and/or novel compounds that have potential antidepressant properties decrease the duration of immobility and at the same time increases mobility in the TST.
Data were analyzed using GraphPad Prism software (GraphPad Software, Inc. San Diego, Calif.). For the comparison of the effect of different doses for various drugs on immobility in the TST one-way analyses of variance (ANOVA) were used followed by Dunnett's multiple comparison test. […] The ED50 and Emax values were compared using two-way ANOVA and Bonferroni post-hoc test.
Positive controls included duloxetine (DLX), venlafaxine (VLX)and desipramine (DMI) which were dissolved in 0.5% methylcellulose and lorazepam (LOR) which was suspended in 0.5% of methylcellulose in water by sonication. All drugs and vehicles were administered orally (p.o.) by gavage in a volume of 10 mL/kg.
The mice were ordered 5 weeks old and at the beginning of experiment their weight was 20±5 g. Animals were housed in groups of four in plastic cages at an ambient temperature of 21° C. to 23° C. with an automated 12/12 hours light/dark cycle and access to water and a commercial rodent food ad libitum.
Each experiment consisted of seven treatment groups with four animals per group. A total of 28 animals per experiment were used. Every two consecutive experiments (1 & 2, 3 & 4, 5 & 6 and 7 & 8) were exact replicas of each other. […] One treatment group of four animals in each experiment was a vehicle treated group. In addition to the vehicle treated group, the effects of DMI at 6 mg/kg, 12 mg/kg, 30 mg/kg, 60 mg/kg and 120 mg/kg and LOR at 5 mg/kg were tested in experiments 1 and 2. […] In experiments 5 and 6 the effects of DLX at 6 mg/kg, 12 mg/kg, 30 mg/kg, 60 mg/kg, 120 mg/kg and LOR at 5 mg/kg were tested. […]

Male Sprague Dawley rats = experiment: Forced Swim Test (Acute), FST; type: in vivo
Method: The Forced Swim test (FST) is a commonly used procedure to screen compounds for possible antidepressant properties. This test is also known as the behavioral despair test. Rodents placed in […] tanks filled with water present a wide variety of escape or immobility behaviors. Antidepressant drugs from different classes markedly increase escape behaviors and/or decrease latency or duration of immobility.
Venlafaxine and desipramine were dissolved in water. All drugs and their vehicles were administered orally (p.o.) by gavage in a volume of 5 mL/kg.
Male Sprague Dawley rats (140 to 160 g) from Charles River Laboratories Wilmington, Mass. were used. The animals went through a five-day quarantine period before being subjected to the experimental procedure.
Animals were housed in groups of four in plastic cages at an ambient temperature of 21° C. to 23° C. with an automated 12 hour light/dark cycle and access to water and commercial rodent food ad libitum. Animals were not handled more than for the routine bedding change prior to pre-test swim session.
Each experiment consisted of seven treatment groups with n=4 animals per group. A total of 28 animals per experiment were used. Two consecutive experiments (1 and 2, 3 and 4, and 5 and 6) were exact replicas of each other. […] One treatment group of n=4 animals in each experiment was a vehicle treated group. […] In experiments 5 and 6 the effects of venlafaxine and maprotyline at 12 mg/kg, 30 mg/kg, and 60 mg/kg were tested.
The basic apparatus consisted of a cylinder (46 cm tall×˜20 cm diameter) filled with water to 30 cm deep, at a temperature of 25±1° C. The automated version of the FST was used to perform the experiments. Plumbing for automatic filling and emptying water connected the four cylinders. Cylinders were placed in the dividing chambers 25 cm wide to separate animals visually. Each 5-minute experimental session was videotaped and analyzed in real time by computer software (Clever Systems, Inc.) for four animals at a time. The immobility, swimming, climbing and escape times were recorded by the software. The four activities are defined as follow. Immobility: the animal floats motionlessly or makes only those movements necessary to keep its head above water; Climb: the animal vigorously moves vertically while scratching the wall around the cylinder; Swim: the animal moves horizontally around in the cylinder more than necessary to keep its head above water; and Escape: sum of all vigorous active movements.
The ability of a test compound to decrease the duration or frequency of immobility, or changes in swimming, climbing and escape times, was measured using the FST procedure described above. […] The analysis of the results in the studies described was focused on the immobility time during 5-minute test session.
There were two swim sessions in each experiment. First, a pre-test swim session for 15 minutes was performed. Following 48 hours later was a test session of 5-minute duration. Upon completion of a swim session, each animal was placed under a heat lamp in a cage with soft bedding for approximately 15 minutes to prevent hypothermia.
Animals were pre-treated with a vehicle or test compound after completing the pre-test swim session, then 24 hours later and then shortly prior to the 5-minute test session; i.e., three injections were given to each animal between the two swim sessions that occurred on 3 consecutive days.
Data were analyzed using GraphPad Prism software (GraphPad Software, Inc. San Diego, Calif.). For the comparison of the effect of different doses for various drugs on immobility in the FST one-way ANOVA was used followed by Dunnett's multiple comparison test. […] The ED50 and Emax values were statistically compared using two-tail t-test.

Male Wistar rats = experiment: Chronic Mild Stress Model (Chronic), sucrose consumption; type: in vivo; conditions: stressed animals, once daily i.p.
Source text: In the chronic mild stress (CMS) model rats subjected to a variety of mild stressors for a prolonged period of time show, among other behavioural, biochemical and physiological impairments, a substantial decrease in their responsiveness to rewarding stimuli. This deficit is usually monitored by a decrease in the consumption of the 1% sucrose solution, but can also be seen in other tests, such as place preference conditioning or intracranial self-stimulation. Since the subsensitivity to reward appears to reflect anhedonia (inability to experience pleasure), which is a core symptom of major depressive disorders, the CMS procedure may serve as a suitable research tool in studies into the mechanisms of antidepressant action.
Male Wistar rats were brought into the laboratory two months before the start of the experiment. Except as described below, the animals were singly housed with food and water freely available, and were maintained on a 12-h light/dark and in a constant temperature (22±2° C.) and humidity (50±5%) conditions.
The animals were first trained to consume a 1% sucrose solution; training consisted of eight 1 h baseline tests in which sucrose was presented, in the home cage, following 14 h food and water deprivation; the sucrose intake was measured by weighing pre-weighed bottles containing the sucrose solution, at the end of the test. Subsequently, sucrose consumption was monitored, under similar conditions, at weekly intervals throughout the whole experiment.
On the basis of their sucrose intakes in the final baseline test, the animals were divided into two matched groups. One group of animals was subjected to the chronic mild stress procedure for a period of 7 consecutive weeks. Each week of stress regime consisted of: two periods of food or water deprivation, two periods of 45 degree cage tilt, two periods of intermittent illumination (lights on and off every 2 h), two periods of soiled cage (250 ml water in sawdust bedding), one period of paired housing, two periods of low intensity stroboscopic illumination (150 flashes/min), and three periods of no stress. All stressors were 10-14 h of duration and were applied individually and continuously, day and night. Control animals were housed in separate rooms and had no contact with the stressed animals. They were deprived of food and water for the 14 h preceding each sucrose test, but otherwise food and water were freely available in the home cage.
The drugs were administered at approx. 10.00 and the weekly sucrose tests were carried out 24 h following the last drug injections. […]
All results obtained in this study were analyzed by multiple analyses of variance with three between-subjects factors (stress/control, drug treatments and successive sucrose tests). […]

[1] = system: stressed and non-stressed animals; experiment: Resident/Intruder Assay (Chronic Social Stress Assay); type: in vivo; conditions: Forced Swim Test, 10 mg/kg p.o.
Source text: The behavioral resident/intruder assay is used to screen compounds for anti-depressant-like activity.

submissive rats = experiment: Dominant-Submissive Relations (DSR) assay: Reduction of Submissive Behavior Model (RSBM) of depression; type: in vivo, Male Sprague Dawley rats; conditions: 10.0 mg/kg i.p.
Method: The DSR assay is divided into two models: Reduction of Dominant Behavior Model (RDBM) of mania and Reduction of Submissive Behavior Model (RSBM) of depression. The RDBM, wherein the dominant animals are treated with test compound, is predictive of the ability of the test compound to treat mania. The RSBM, wherein the submissive animals are treated with test compound, is predictive of the ability of the test compound to treat depression.
Male Sprague Dawley rats (140 to 160 g) from Charles River Laboratories Wilmington, Mass. were used in this assay. Shipments of rats were received at two-week intervals. Each shipment went through five-day quarantine, one-week acclimation period, and one-week selection process, followed by five-weeks of drug or vehicle treatment to those pairs selected.
Rats were housed four per cage. Access to food was restricted to one hour per day after testing on Monday through Thursday. After testing on Friday, rats had free access to food until being fasted again on Sunday. At no time were the rats deprived of water. The food deprivation periods used had little effect on weight gain as the average weight of rats was about 300 g at the end of the study. At the conclusion of experiment rats were sacrificed by decapitation, the trunk blood and brains were collected for in vitro experiments and drug concentration measurements.
The basic testing apparatus consisted of two chambers connected with a tunnel only large enough to allow one rat to pass through at a time. On the floor, at the mid-point of the tunnel was a container of sweetened milk. This basic apparatus was replicated, so that a total of four pairs of rats can be video tracked simultaneously. The camera can distinguish rats marked by different colors. Thus, the rats' heads were colored for the purpose of video tracking, red in one cage and yellow in the other cage. Only one animal at a time can have comfortable access to the feeder, but both animals can drink milk during the five-minute daily session. During the five-minute daily sessions, time spent in the feeder zone by each rat was recorded by the video tracking software and saved into a text file.
The test began with a random assignment of rats into pairs. Each member of a pair was placed in an opposite chamber of the testing apparatus. The time spent in the feeder zone by each animal was recorded. During the first week (five days) of testing the animals habituate to the new environment. Dominance was assigned to the animal with the highest score during the second week of testing if three criteria were achieved. First, there must have been a significant difference (two-tailed t-test, P<0.05) between the average daily drinking scores of both animals. Second, the dominant animal score must have been at least 25% greater than the submissive animal's score. Finally, there must have been no “reversals” during the pair selection week where the putative submissive rat out-scored its dominant partner on isolated occasions. Ideally there were minimal reversals during the acclimation week as well. About twenty-five to thirty-three percent of the initial animal pairs achieved these criteria and only these pairs were continued in the study.
Significant differences between time spent on the feeder by dominant and submissive rats were determined by ANOVA using GraphPad Prism software (GraphPad Software, Inc. San Diego, Calif.) followed by a two-tailed t-test (P<0.05). Comparisons were made between treatment groups using normalized dominance level values in paired animals. The dominance level is a value that measures social relation between paired subjects. Dominance level (DL)=FTD−FTS where FTD is the feeder time of dominant rats and FTS is the feeder time of submissive rats. The normalization was conducted according to the formula: Dominance Level (week n in %)=(Dominance Level (week n))/(Dominance Level (week 2) […]

CNCCCN1c2ccccc2CCc2ccccc21 [DMI, desipramine, reference compound]
ED50 (CH3/HeJ mice; read-out: Immobility ED50): 27.4 mg/kg | ED50 (CH3/HeJ mice; read-out: Mobility ED50): 24.4 mg/kg | ED50 (Male Sprague Dawley rats; Rattus norvegicus, po, 5 min, p.o., three administrations, 5-minute test session, read-out: ED50 (immobility)): 2 ± 0.1 mg/kg | Emax (immobility) (Male Sprague Dawley rats; p.o., immobility): 50.0 ± 8.4 s

CN(C)CCCN1c2ccccc2CCc2ccccc21 [Imipramine, imipramine, reference compound]
treatment time until increase in sucrose intake reached statistical significance vs Week 0 (Male Wistar rats): four weeks

O=C1Nc2ccc(Cl)cc2C(c2ccccc2Cl)=NC1O (stereo not shown) [Lorazepam, lorazepam, reference compound]
effect on immobility time (Male Sprague Dawley rats; 1 mg/kg p.o., negative control): no significant effect

COc1ccc(C(CN(C)C)C2(O)CCCCC2)cc1 (stereo not shown) [Venlafaxine, venlafaxine]
Immobility during 5 min: Week 5 Mean ± SD ([1]; non-stressed): 181.8 ± 27.6 | Immobility during 5 min: Week 5 Mean ± SD ([1]; stressed): 190.4 ± 36.8 | treatment time until increase in sucrose intake reached statistical significance vs Week 0 (Male Wistar rats): four weeks

CNCCC(Oc1ccc(C(F)(F)F)cc1)c1ccccc1 (stereo not shown) [fluoxetine, reference compound]
loss of significant difference between dominant and submissive rats (submissive rats): lost after third week of treatment
